# Read-outs that look alike come from different tables or passages of the source.
# How the values were obtained:
# Assay type in all cases: biochemical
# JAK-1 = JAK-1 (Homo sapiens (Human), UniProt P23458); assay: Inhibition test on JAK-1 kinase (FRET peptide substrate assay); details: kinase 1 nM, 1 h at room temperature
# Text: (§1) Experiment Example (Inhibition Tests on JAK-1, JAK-2 and JAK-3 Kinases)
# (§2) To evaluate the inhibitory activity of the compound on JAK-1, JAK-2 and JAK-3 kinases
# (§3) A proteolytic enzyme is coupled to exert different proteolysis on a specific phosphorylated and nonphosphorylated peptide substrate based on fluorescence resonance energy transfer (FRET). Both ends of the peptide substrate were respectively labeled FRET energy donor coumarin and energy receptor fluorescein, and at this time, the donor was stimulated to produce energy transfer when the donor is close to a receptor.
# (§4) In Kinase Reaction, JAK-1, JAK-2 or JAK-3 may transfer γ-phosphoric acid in ATP onto a single tyrosine residue of a peptide substrate; and there were JAK-1, JAK-2 or JAK-3 inhibitors in the system, γ-phosphoric acid groups on ATP would be not transferred onto the peptide substrate, thus resulting in the failure of phosphorylation. An evaluation experiment was designed based on the principle, a peptide substrate was designed with kinase phosphorylation sites, namely, protein restriction enzyme cutting sites; and both ends thereof were respectively connected with 2 fluorophores as a donor and a receptor respectively; if the kinase kept activity in the system, a γ-phosphonic acid group was transferred onto restriction enzyme cutting sites of the substrate, so that the γ-phosphonic acid group would not be cut and separated into two segments by a protease; moreover, under the stimulation of a laser having a specific wavelength, energy from a segment of fluorescence would be transferred onto another end of fluorophores, thus emitting energy. Otherwise, after kinase activity was inhibited, phosphoric acid groups would be not transferred, and restriction enzyme cutting sites in the substrate would be cut by a […] in the system to separate the substrate into two segments, thereby no energy transfer of fluorescence occurred. Based on this, the activity of the kinase was evaluated.
# (§5) In this experiment, a 10 μl kinase reaction system was selected, firstly, 2.5 μl kinase (concentration: 1 nM), 2.5 μl peptide substrate (concentration: 2 μM), 2.5 μl ATP (concentration: […]) and 2.5 μl compound were added to each system for reaction for 1 h at room temperature, and then a 5 μl test solution was added for reaction for 1 h at room temperature, then a 5 μl stop buffer was added. A microplate reader (Synergy H1, BioTek, USA) was used to measure fluorescence intensity (emission intensity of coumarin at 445 nm and emission intensity of fluorescein at 520 nm were detected under the stimulation of 400 nm). The inhibitory activity of each compound was calculated, where it was believed that fluorescence intensity of a well not containing the kinase was 100% inhibited.
# JAK-2 = JAK-2 (Homo sapiens (Human), UniProt O60674); assay: Inhibition test on JAK-2 kinase (FRET peptide substrate assay); details: kinase 1 nM, 1 h at room temperature
# Chain of JAK-2 (O60674 whole entry): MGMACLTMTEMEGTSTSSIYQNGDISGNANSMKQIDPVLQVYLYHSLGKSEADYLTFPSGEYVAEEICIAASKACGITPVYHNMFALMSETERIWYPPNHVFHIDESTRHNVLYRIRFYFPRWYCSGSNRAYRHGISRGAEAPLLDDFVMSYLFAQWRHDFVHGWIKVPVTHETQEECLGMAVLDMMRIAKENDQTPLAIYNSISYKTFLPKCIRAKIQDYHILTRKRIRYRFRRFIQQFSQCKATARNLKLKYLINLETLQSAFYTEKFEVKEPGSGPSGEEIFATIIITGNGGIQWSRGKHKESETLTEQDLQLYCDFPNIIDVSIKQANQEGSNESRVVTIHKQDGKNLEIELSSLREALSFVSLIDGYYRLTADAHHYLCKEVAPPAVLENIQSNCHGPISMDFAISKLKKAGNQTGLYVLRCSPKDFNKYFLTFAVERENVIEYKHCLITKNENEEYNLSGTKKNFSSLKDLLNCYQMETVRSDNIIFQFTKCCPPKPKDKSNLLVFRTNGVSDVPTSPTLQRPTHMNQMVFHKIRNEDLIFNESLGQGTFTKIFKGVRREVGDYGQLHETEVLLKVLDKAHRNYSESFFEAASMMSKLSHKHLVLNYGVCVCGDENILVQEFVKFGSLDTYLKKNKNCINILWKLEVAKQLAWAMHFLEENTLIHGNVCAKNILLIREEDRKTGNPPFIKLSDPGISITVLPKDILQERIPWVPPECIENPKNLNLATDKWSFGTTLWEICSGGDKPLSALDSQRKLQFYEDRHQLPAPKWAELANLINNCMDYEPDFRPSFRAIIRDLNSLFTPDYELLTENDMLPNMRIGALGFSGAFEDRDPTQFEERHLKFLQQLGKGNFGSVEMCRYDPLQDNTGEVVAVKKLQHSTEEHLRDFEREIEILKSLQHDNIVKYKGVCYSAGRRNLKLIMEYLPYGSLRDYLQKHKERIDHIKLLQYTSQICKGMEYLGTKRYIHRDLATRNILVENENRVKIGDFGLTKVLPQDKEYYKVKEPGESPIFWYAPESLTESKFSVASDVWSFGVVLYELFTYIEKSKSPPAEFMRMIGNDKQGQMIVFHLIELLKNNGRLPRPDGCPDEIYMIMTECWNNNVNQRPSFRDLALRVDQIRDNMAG
# Text: as §1, §2, §3, §4, §5
# JAK-3 = JAK-3 (Homo sapiens (Human), UniProt P52333); assay: Inhibition test on JAK-3 kinase (FRET peptide substrate assay)
# Chain of JAK-3 (P52333 whole entry): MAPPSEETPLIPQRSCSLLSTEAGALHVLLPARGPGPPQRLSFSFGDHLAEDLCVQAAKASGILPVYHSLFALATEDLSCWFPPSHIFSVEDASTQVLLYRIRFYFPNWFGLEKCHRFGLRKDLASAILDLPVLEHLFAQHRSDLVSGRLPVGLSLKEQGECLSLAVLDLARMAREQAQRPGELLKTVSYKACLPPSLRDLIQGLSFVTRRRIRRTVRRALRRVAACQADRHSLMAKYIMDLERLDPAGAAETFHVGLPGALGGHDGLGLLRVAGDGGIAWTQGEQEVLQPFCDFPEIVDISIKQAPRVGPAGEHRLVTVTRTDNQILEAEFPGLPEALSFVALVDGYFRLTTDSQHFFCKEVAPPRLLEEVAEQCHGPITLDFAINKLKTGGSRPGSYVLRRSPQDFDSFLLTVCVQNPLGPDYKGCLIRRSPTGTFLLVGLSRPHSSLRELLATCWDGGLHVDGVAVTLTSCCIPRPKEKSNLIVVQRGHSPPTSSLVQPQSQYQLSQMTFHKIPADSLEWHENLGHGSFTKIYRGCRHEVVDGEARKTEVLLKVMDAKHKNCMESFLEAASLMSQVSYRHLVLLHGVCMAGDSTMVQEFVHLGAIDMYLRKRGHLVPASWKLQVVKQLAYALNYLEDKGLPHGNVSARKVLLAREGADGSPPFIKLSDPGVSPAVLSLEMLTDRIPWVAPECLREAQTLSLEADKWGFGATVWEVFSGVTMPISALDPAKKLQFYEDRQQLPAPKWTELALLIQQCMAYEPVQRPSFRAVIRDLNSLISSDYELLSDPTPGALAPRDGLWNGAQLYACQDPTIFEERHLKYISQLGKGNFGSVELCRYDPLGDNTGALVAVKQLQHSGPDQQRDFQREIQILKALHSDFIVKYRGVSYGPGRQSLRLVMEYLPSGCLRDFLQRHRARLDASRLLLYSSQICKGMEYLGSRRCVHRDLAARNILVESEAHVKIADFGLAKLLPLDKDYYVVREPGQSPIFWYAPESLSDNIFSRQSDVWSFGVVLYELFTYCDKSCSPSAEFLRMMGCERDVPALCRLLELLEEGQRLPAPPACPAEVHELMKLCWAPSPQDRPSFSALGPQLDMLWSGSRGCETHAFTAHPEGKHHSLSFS
# Text: as §1, §2, §3, §4, §5
# [1] = kinase 1 nM, 1 h at room temperature, read-out: IC50 (nM) JAK-3
# Chain of JAK-1 (P23458 whole entry): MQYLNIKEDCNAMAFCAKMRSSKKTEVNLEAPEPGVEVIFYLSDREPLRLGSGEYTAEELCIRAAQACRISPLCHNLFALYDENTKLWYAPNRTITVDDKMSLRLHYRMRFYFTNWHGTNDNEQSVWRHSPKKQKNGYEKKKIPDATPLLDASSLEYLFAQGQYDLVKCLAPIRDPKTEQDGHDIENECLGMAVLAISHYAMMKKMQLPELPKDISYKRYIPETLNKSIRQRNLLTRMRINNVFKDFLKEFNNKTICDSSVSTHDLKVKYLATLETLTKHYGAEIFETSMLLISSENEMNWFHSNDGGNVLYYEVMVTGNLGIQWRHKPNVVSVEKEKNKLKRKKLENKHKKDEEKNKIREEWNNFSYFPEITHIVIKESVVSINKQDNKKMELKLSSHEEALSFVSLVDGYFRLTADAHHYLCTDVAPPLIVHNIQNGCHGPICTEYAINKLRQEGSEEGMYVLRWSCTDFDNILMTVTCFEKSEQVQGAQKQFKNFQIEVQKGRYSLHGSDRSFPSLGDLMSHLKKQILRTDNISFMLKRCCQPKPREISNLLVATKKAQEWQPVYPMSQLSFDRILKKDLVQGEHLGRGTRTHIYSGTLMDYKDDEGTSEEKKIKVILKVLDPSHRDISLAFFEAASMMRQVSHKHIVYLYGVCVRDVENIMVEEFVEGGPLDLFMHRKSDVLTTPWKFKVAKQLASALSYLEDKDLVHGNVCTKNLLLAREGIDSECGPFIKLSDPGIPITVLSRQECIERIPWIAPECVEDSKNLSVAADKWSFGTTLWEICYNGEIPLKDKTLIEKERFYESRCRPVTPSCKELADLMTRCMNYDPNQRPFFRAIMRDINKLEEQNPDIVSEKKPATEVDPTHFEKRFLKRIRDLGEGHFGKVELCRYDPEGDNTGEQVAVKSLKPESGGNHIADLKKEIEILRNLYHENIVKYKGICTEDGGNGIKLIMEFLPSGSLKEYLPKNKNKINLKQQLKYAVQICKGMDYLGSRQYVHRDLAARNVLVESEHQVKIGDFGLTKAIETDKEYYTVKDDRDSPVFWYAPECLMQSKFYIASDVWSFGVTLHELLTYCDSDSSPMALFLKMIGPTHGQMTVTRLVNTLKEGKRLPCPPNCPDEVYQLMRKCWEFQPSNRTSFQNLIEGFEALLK
IC50 (JAK-1) [nM],IC50 (JAK-2) [nM],IC50 (JAK-3; [1]) [nM],"IC50 (JAK-3; differs from Table 5, read-out: JAK-3 inhibitory activity IC50) [nM]",Structure (SMILES)
890,710,0.4,,"C/C=C/C(=O)Nc1cccc(Cn2ncc3cnc(Nc4ccc(N5CCOCC5)cc4)nc32)c1 [Example 13, N-(3-((6-((4-morpholinylphenyl)amino)-1H-pyrazolo[3,4-d]pyrimidin-1-yl)methyl)phenyl)but-2-enamide]"
1120,948,0.2,,"C/C=C/C(=O)Nc1ccc(Cn2ncc3cnc(Nc4cnn(CCO)c4)nc32)cc1 [Example 24, N-(4-((6-((1-(2-hydroxyethyl)-1H-pyrazol-4-yl)amino)-1H-pyrazolo[3,4-d]pyrimidin-1-yl)methyl)phenyl)but-2-enamide]"
2850,1800,0.2,,"C=CC(=O)Nc1ccc(Cn2ncc3cnc(Nc4ccc(N5CCN(C)CC5)cc4)nc32)cc1 [Example 21, N-(4-((6-((4-(4-methylpiperazin-1-yl)phenyl)amino)-1H-pyrazolo[3,4-d]pyrimidin-1-yl)methyl)phenyl)acrylamide]"
880,804,0.3,,"C/C=C/C(=O)Nc1ccc(Cn2ncc3cnc(Nc4ccc(F)cc4)nc32)cc1 [Example 26, N-(4-((6-((4-fluorophenyl)amino)-1H-pyrazolo[3,4-d]pyrimidine-1-yl)methyl)phenyl)but-2-enamide]"
274,1310,0.9,,"C/C=C/C(=O)Nc1cccc(Cn2ncc3cnc(Nc4ccc(N5CCN(C)CC5)cc4)nc32)c1 [Example 14, N-(3-((6-((4-(4-methylpiperazin-1-yl)phenyl)amino)-1H-pyrazolo[3,4-d]pyrimidin-1-yl)methyl)phenyl)but-2-enamide]"
701,610,3,,"C/C=C/C(=O)Nc1cccc(Cn2ncc3cnc(Nc4cnn(CCOC)c4)nc32)c1 [Example 8, N-(3-((6-((1-(2-methoxy-ethyl)-1H-pyrazol-4-yl)amino)-1H-pyrazolo[3,4-d]pyrimidine-1-yl)methyl)phenyl)but-2-enamide]"
942,1080,6.1,,"C=CC(=O)Nc1cccc(Cn2ncc3cnc(Nc4ccc(N5CCN(C)CC5)cc4)nc32)c1 [Example 7, N-(3-((6-((4-(4-methylpiperazin-1-yl)phenyl)amino)-1H-pyrazolo[3,4-d]pyrimidin-1-yl)methyl)phenyl)acrylamide]"
940,960,0.7,,"C/C=C/C(=O)Nc1cccc(Cn2ncc3cnc(Nc4cnn(CCO)c4)nc32)c1 [Example 10, N-(3-((6-((1-(2-hydroxyethyl)-1H-pyrazol-4-yl)amino)-1H-pyrazolo[3,4-d]pyrimidin-1-yl)methyl)phenyl)but-2-enamide]"
4090,790,2.3,,"C/C=C/C(=O)Nc1ccc(Cn2ncc3cnc(Nc4ccc(N5CCN(C)CC5)cc4)nc32)cc1 [Example 28, N-(4-((6-((4-(4-methylpiperazin-1-yl)phenyl)amino)-1H-pyrazolo[3,4-d]pyrimidin-1-yl)methyl)phenyl)but-2-enamide]"
1390,941,2.2,,C=CC(=O)Nc1cccc(Cn2ncc3cnc(Nc4cnn(C)c4)nc32)c1 [Example 2]
1000,3100,0.1,,"C=CC(=O)Nc1cccc(Cn2ncc3cnc(Nc4ccc(N5CCOCC5)cc4)nc32)c1 [Example 6, N-(3-((6-((4-morpholinylphenyl)amino)-1H-pyrazolo[3,4-d]pyrimidin-1-yl)methyl)phenyl)acrylamide]"
1420,846,2,,"C=CC(=O)Nc1ccc(Cn2ncc3cnc(Nc4cnn(CCO)c4)nc32)cc1 [Example 17, N-(4-((6-((1-(2-hydroxyethyl)-1H-pyrazol-4-yl)amino)-1H-pyrazolo[3,4-d]pyrimidin-1-yl)methyl)phenyl)acrylamide]"
1410,770,1.4,,"C=CC(=O)Nc1ccc(Cn2ncc3cnc(Nc4cnn(C)c4)nc32)cc1 [Example 16, N-(4-((6-((1-methyl-1H-pyrazol-4-yl)amino)-1H-pyrazolo[3,4-d]pyrimidine-1-yl)methyl)phenyl)acrylamide]"
830,690,1.4,,"C/C=C/C(=O)Nc1cccc(Cn2ncc3cnc(Nc4ccccc4)nc32)c1 [Example 11, N-(3-((6-aniline-1H-pyrazolo[3,4-d]pyrimidin-1-yl)methyl)phenyl)but-2-enamide]"
1030,2310,0.2,,"C/C=C/C(=O)Nc1cccc(Cn2ncc3cnc(Nc4ccc(F)cc4)nc32)c1 [Example 12, N-(3-((6-((4-fluorophenyl)amino)-1H-pyrazolo[3,4-d]pyrimidin-1-yl)methyl)phenyl)but-2-enamide]"
918,1250,2,,"C/C=C/C(=O)Nc1ccc(Cn2ncc3cnc(Nc4cnn(CCOC)c4)nc32)cc1 [Example 22, N-(4-((6-((1-(2-methoxy-ethyl)-1H-pyrazol-4-yl)amino)-1H-pyrazolo[3,4-d]pyrimidine-1-yl)methyl)phenyl)but-2-enamide]"
1580,1800,3.7,,"C=CC(=O)Nc1ccc(Cn2ncc3cnc(Nc4ccc(F)cc4)nc32)cc1 [Example 19, N-(4-((6-((4-fluorophenyl)amino)-1H-pyrazolo[3,4-d]pyrimidin-1-yl)methyl)phenyl)acrylamide]"
1990,1280,2.8,,"C=CC(=O)Nc1ccc(Cn2ncc3cnc(Nc4ccccc4)nc32)cc1 [Example 18, N-(4-((6-aniline-1H-pyrazolo[3,4-d]pyrimidin-1-yl)methyl)phenyl)acrylamide]"
901,1120,1.1,,"C=CC(=O)Nc1cccc(Cn2ncc3cnc(Nc4ccccc4)nc32)c1 [Example 4, N-(3-((6-aniline-1H-pyrazolo[3,4-d]pyrimidin-1-yl)methyl)phenyl)acrylamide]"
2400,1040,1.2,,"C/C=C/C(=O)Nc1ccc(Cn2ncc3cnc(Nc4ccccc4)nc32)cc1 [Example 25, N-(4-((6-aniline-1H-pyrazolo[3,4-d]pyrimidin-1-yl)methyl)phenyl)but-2-enamide]"
,747,1.4,0.085,"C=CC(=O)Nc1cccc(Cn2ncc3cnc(Nc4cnn(CCOC)c4)nc32)c1 [Example 1, N-(3-((6-((1-(2-methoxyethyl)-1H-pyrazol-4-yl)amino)-1H-pyrazolo[3,4-d]pyrimidine-1-yl)methyl)phenyl)acrylamide]"
934,892,1.7,,"C=CC(=O)Nc1ccc(Cn2ncc3cnc(Nc4ccc(N5CCOCC5)cc4)nc32)cc1 [Example 20, N-(4-((6-((4-morpholinylphenyl)amino)-1H-pyrazolo[3,4-d]pyrimidin-1-yl)methyl)phenyl)acrylamide]"
1540,602,0.5,,"C=CC(=O)Nc1ccc(Cn2ncc3cnc(Nc4cnn(CCOC)c4)nc32)cc1 [Example 15, N-(4-((6-((1-(2-methoxyethyl)-1H-pyrazol-4-yl)amino)-1H-pyrazolo[3,4-d]pyrimidine-1-yl)methyl)phenyl)acrylamide]"
960,893,2,,"C/C=C/C(=O)Nc1ccc(Cn2ncc3cnc(Nc4ccc(N5CCOCC5)cc4)nc32)cc1 [Example 27, N-(4-((6-((4-morpholinylphenyl)amino)-1H-pyrazolo[3,4-d]pyrimidin-1-yl)methyl)phenyl)but-2-enamide]"
618,860,2.1,,"C/C=C/C(=O)Nc1cccc(Cn2ncc3cnc(Nc4cnn(C)c4)nc32)c1 [Example 9, N-(3-((6-((1-methyl-1H-pyrazol-4-yl)amino)-1H-pyrazolo[3,4-d]pyrimidin-1-yl)methyl)phenyl)but-2-enamide]"
940,697,0.1,,"C/C=C/C(=O)Nc1ccc(Cn2ncc3cnc(Nc4cnn(C)c4)nc32)cc1 [Example 23, N-(4-((6-((1-methyl-1H-pyrazol-4-yl)amino)-1H-pyrazolo[3,4-d]pyrimidin-1-yl)methyl)phenyl)but-2-enamide]"

# Reference: patent publication US11993603B2, “Preparation for 6-amino-1H-pyrazolo[3,4-d]pyrimidine-based JAK kinase inhibitor and application thereof” (INSTITUTE OF MATERIA MEDICA, CHINESE ACADEMY OF MEDICAL …, priority 2018, dated 2024)
